Values of other authors as cited in patent publication US20110124713A1, “SAM-II RIBOSWITCH AND USES THEREOF” (The Regents of the University of Colorado, A body Corporate, priority 2007, published 2011).

System: SAM-II riboswitch
Conditions: absence vs presence of SAM; nucleotides G8-U12 in L1

Structure (SMILES): C[S+](CC[C@H](N)C(=O)O)C[C@H]1O[C@@H](n2cnc3c(N)ncnc32)[C@H](O)[C@@H]1O (stereo partly shown) [SAM, S-adenosylmethionine]
- ligand-dependent protections in in-line probing: strong ligand-dependent protections
